Results on 2 compounds are retold here after paper PMC10578352, “Identification of a Protein Arginine Methyltransferase 7 (PRMT7)/Protein Arginine Methyltransferase 9 (PRMT9) Inhibitor” (Journal of Medicinal Chemistry, 2023).

One data set has as its target T1, human recombinant PRMT9 (Homo sapiens, UniProt Q6P2P2).
T1 construct: human recombinant PRMT9 (2–845; N-terminal FLAG-tag, C-terminal His6-tag); FLAG (N); His6 (C); purchased BPS BioScience 79124
T1 sequence (Q6P2P2 2-845): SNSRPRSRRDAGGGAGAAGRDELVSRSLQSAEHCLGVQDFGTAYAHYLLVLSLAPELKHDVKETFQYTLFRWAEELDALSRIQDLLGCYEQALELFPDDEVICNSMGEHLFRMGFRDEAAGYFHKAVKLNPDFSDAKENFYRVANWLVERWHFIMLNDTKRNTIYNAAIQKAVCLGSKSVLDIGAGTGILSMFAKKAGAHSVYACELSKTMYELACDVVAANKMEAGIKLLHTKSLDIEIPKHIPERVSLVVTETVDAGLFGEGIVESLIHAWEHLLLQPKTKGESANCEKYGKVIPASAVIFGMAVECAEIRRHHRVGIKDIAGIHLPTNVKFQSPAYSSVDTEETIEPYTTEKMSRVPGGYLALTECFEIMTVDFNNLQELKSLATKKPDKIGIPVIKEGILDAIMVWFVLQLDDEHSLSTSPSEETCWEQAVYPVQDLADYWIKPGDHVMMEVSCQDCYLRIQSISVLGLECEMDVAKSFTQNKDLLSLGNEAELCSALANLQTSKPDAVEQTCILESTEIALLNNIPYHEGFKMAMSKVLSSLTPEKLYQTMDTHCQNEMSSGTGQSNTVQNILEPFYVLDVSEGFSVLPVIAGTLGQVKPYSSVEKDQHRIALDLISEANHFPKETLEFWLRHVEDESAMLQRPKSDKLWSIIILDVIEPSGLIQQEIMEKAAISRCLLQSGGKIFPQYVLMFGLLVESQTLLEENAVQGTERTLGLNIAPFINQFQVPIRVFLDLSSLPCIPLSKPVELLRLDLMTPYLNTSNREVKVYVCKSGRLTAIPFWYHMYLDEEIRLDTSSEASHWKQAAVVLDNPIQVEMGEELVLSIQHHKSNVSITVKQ
In words: AlphaLISA PRMT9 activity assay (modified BPS kit, biotinylated SF3B2 peptide). It is filed as biochemical. The conditions noted are these: for pIC50: PRMT9 0.105 μM, biotinylated SF3B2 (500–519) peptide 100 nM, SAM 25 μM. Here is the method: Accordingly, all the enzymatic inhibition data were obtained by performing the assays in these optimized conditions.
The reaction was incubated for 60 min. Afterward, in each well, 5 μL of a 1:100 dilution of Primary antibody 28 (BPS BioScience, #52140Z3) in Detection buffer (BPS BioScience) and 5 μL of anti-Rabbit acceptor beads (PerkinElmer, #AL104C) were added to obtain a final concentration of 20 μg/mL.
For each incubation step, the OptiPlate was sealed with a protective foil to prevent evaporation and contamination. Donor and Acceptor beads were added to the mixture in subdued light.
The 100% activity (positive control) was reached using vehicle (DMSO), while 0% activity (negative control) was obtained without the protein. Data were analyzed by using Excel and Prism software. Values obtained for each compound are mean ± SD determined for three separate experiments.
For orientation: Alpha assays give light when donor and acceptor beads are brought close together.

On the set-up of data set [1]: method as in PMID 35482954. The conditions noted are these: cited from earlier work.
The test system of data set [2] is PRMT4-catalyzed arginine methylation in MCF-7 cells. The arrangement: method as in PMID 35482954. The conditions noted are these: cited from earlier work.
Another data set relates to MCF-7 cells. Further details: method as in PMID 35482954. The conditions noted are these: cited from earlier work.
The next data set deals with T2, PRMT1 (Homo sapiens, UniProt Q99873).
T2 construct: PRMT1 (residues 2–371, C-terminus); with an N-terminal GST-tag; GST (N); purchased Reaction Biology Corporation
In words: HotSpot radioisotope-based filter assay, PRMT1. In kind it is biochemical. Particulars: 5 μM histone H4, 3H-SAM 1 μM. Here is the method:
(§1) Then, ^3H-SAM (final concentration of 1 μM) was delivered into the reaction mixture to initiate the reaction. After incubation for 60 min at 30 °C, the reaction mixture was delivered to filter-paper for detection (as assessed by scintillation). Data were analyzed using Excel and GraphPad Prism 6.0 software (GraphPad Software Inc., San Diego, CA) for IC50 curve fits using sigmoidal dose vs response - variable slope (four parameters) equations.

A further data set has as its target T3, PRMT3 (Homo sapiens, UniProt O60678).
T3 construct: PRMT3 (residues 2–531, C-terminus); with an N-terminal His-tag; His (N); purchased Reaction Biology Corporation
In words: HotSpot radioisotope-based filter assay, PRMT3. It is filed as biochemical. The conditions noted are these: 5 μM histone H4, 3H-SAM 1 μM. Here is the method:
as §1

The target of a further data set is T4, PRMT4 (Homo sapiens, UniProt Q86X55).
T4 construct: PRMT4 (residues 2–608, C-terminus); with an N-terminal GST-tag; GST (N); purchased Reaction Biology Corporation
T4 sequence (Q86X55 2-608): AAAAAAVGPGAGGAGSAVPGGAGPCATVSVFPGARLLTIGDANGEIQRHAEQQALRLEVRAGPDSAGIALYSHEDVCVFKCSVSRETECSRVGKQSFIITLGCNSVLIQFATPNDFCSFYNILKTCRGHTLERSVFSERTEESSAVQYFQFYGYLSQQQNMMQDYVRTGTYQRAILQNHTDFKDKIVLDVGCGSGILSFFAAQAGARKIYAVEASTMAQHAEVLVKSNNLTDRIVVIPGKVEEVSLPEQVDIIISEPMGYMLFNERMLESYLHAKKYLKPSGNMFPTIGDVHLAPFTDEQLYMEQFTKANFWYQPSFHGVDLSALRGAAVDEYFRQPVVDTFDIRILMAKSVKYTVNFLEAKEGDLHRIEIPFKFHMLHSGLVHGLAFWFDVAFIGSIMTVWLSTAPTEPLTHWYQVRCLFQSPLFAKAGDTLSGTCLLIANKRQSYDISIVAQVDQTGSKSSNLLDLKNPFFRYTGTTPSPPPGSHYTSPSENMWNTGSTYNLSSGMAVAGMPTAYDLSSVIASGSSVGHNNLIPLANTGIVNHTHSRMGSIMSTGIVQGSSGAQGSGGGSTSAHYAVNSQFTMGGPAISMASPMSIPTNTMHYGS
In words: HotSpot radioisotope-based filter assay, PRMT4. In kind it is biochemical. The conditions noted are these: 5 μM histone H3, 3H-SAM 1 μM. Here is the method:
as §1

A further data set concerns the target T5, PRMT5/MEP50 complex (Homo sapiens, UniProt O14744).
T5 construct: residues PRMT5 2–637, C-terminus, and MEP50 2–342, C-terminus; FLAG (N); purchased Reaction Biology Corporation
In words: HotSpot radioisotope-based filter assay, PRMT5. It is filed as biochemical. The conditions noted are these: 5 μM histone H2A, 3H-SAM 1 μM. Here is the method:
as §1

Another data set addresses T6, PRMT6 (Homo sapiens, UniProt Q96LA8).
T6 construct: PRMT6 (residues 2–375, C-terminus); with an N-terminal GST-tag; GST (N); purchased Reaction Biology Corporation
In words: HotSpot radioisotope-based filter assay, PRMT6. In kind it is biochemical. Particulars: 5 μM GST-GAR, 3H-SAM 1 μM. Here is the method: as §1

The target in a further data set is T7, PRMT7 (Homo sapiens, UniProt Q9NVM4).
T7 construct: PRMT7 (residues 2–692, C-terminus); with an N-terminal His-tag; His (N); purchased Reaction Biology Corporation
T7 sequence (Q9NVM4 2-692): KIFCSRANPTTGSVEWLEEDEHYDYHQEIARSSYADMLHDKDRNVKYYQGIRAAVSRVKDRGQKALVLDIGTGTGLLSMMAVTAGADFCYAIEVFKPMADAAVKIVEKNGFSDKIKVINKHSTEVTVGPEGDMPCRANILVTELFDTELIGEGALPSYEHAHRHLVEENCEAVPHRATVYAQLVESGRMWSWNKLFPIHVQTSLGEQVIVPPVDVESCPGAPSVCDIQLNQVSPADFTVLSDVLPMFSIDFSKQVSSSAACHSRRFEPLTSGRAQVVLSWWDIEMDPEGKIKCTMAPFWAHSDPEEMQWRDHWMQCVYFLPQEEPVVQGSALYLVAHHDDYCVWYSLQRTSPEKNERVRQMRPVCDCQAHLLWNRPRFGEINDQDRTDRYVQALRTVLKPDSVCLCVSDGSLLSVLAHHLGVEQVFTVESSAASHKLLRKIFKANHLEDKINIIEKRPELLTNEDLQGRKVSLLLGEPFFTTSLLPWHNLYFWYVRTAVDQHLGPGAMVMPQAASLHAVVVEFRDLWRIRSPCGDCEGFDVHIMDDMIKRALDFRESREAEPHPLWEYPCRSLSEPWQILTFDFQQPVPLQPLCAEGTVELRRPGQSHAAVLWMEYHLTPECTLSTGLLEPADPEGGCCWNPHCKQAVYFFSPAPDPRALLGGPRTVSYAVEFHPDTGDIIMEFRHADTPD
In words: HotSpot radioisotope-based filter assay, PRMT7. It is filed as biochemical. Particulars: 5 μM GST-GAR, 3H-SAM 1 μM. Here is the method: as §1

The next data set concerns the target T8, PRMT8 (Homo sapiens, UniProt Q9NR22).
T8 construct: (residues 61–394, C-terminus); with C- and N-terminal His-tags; His (N); His (C); purchased Reaction Biology Corporation
In words: HotSpot radioisotope-based filter assay, PRMT8. In kind it is biochemical. Particulars: 5 μM histone H4, 3H-SAM 1 μM. Here is the method: as §1

As a reminder, the pIC50 is −log10 of the IC50, conventionally taken in molar units.

pIC50: −log10 of the molar value. A value given as a limit tells only on which side of the number the result lay.

T3 sequence (O60678 2-531): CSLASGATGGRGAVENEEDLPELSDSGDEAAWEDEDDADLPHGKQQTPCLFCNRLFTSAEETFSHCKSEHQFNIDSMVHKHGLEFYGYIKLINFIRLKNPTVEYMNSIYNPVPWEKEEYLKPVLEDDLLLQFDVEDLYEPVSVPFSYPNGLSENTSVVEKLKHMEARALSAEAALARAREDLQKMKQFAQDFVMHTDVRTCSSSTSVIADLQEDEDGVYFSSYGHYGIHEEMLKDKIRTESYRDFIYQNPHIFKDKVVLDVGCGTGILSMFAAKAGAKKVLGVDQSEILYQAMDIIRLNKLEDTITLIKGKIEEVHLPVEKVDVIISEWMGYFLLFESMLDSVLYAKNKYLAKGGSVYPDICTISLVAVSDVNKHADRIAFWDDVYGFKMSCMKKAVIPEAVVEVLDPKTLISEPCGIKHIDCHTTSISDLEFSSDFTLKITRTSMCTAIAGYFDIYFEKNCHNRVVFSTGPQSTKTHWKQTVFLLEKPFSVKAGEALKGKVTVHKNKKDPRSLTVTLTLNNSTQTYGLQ
T8 sequence (Q9NR22 61-394): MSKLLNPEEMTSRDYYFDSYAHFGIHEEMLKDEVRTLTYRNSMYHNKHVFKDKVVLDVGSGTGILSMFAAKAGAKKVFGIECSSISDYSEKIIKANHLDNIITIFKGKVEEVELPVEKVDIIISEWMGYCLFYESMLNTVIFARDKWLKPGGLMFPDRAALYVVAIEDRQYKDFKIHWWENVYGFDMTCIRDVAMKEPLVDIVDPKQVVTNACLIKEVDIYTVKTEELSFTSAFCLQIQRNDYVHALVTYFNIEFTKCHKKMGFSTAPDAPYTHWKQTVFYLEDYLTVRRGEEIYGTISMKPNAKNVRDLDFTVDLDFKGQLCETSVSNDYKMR
T6 sequence (Q96LA8 2-375): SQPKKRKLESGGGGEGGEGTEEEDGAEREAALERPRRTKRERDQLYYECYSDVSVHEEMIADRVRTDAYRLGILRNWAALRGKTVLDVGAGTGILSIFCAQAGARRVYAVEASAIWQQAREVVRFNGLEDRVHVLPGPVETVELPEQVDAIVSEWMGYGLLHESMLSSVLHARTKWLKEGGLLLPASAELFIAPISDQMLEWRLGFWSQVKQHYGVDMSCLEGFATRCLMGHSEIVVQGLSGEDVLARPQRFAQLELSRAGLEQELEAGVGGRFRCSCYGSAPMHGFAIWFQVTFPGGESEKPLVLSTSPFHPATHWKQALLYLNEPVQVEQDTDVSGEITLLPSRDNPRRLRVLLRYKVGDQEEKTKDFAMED
T5 sequence (O14744 2-637): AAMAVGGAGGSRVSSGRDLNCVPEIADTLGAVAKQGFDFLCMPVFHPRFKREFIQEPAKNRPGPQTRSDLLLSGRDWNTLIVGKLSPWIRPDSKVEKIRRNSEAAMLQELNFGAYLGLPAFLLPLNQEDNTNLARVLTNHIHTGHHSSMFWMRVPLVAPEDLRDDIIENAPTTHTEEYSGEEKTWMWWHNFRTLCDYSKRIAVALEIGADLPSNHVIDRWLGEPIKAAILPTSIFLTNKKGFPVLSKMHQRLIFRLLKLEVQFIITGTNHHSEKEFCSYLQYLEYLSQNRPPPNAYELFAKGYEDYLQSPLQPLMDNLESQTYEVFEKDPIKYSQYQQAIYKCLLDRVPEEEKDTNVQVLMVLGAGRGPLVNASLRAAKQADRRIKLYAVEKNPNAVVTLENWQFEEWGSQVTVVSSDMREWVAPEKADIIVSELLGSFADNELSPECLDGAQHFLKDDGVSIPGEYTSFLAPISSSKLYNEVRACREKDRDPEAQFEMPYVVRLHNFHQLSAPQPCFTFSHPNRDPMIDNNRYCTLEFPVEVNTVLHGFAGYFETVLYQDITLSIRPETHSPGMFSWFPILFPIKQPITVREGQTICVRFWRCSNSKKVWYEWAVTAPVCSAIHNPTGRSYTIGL
T5 sequence (Q9BQA1 2-342 partner limits assumed): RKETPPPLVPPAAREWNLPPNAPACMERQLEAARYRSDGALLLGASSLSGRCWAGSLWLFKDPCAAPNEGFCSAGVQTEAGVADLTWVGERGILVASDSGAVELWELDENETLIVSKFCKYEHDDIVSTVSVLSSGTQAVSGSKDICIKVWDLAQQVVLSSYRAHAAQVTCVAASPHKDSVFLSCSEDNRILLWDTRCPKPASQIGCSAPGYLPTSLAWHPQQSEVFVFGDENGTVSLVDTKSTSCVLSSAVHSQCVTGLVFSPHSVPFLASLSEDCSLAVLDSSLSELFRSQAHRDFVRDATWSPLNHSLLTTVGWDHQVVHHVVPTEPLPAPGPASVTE
T2 sequence (Q99873 2-371): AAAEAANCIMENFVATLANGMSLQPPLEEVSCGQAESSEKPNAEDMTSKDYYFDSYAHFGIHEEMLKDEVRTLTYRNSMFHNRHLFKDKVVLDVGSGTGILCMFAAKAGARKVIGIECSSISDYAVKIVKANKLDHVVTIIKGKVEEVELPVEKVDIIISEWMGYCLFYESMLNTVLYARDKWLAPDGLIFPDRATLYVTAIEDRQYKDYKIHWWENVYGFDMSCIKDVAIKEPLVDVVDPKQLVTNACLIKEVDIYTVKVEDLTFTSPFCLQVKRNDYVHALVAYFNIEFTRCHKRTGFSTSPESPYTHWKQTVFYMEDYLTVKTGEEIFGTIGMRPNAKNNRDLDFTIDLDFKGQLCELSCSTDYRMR

For the compound `COC(=O)c1cc(O)c2cc(NC(=O)NCCCCNC(=N)NC/C=C/[C@H]3O[C@@H](n4cnc5c(N)ncnc54)[C@H](O)[C@@H]3O)ccc2c1` [1h], the pIC50 on human recombinant PRMT9 is 5.03. Also, in [1], the cell permeability entry was “low”. Further, the “PRMT4-catalyzed arginine methylation levels” value in data set [2] was “evident reduction”. For the same compound, the proliferation result in the data set with MCF-7 cells is recorded as “marked reduction”.

For `COC(=O)c1cc(O)c2cc(NC(=O)NCCNC(=N)NC[C@H]3O[C@@H](n4cnc5c(N)ncnc54)[C@H](O)[C@@H]3O)ccc2c1` [1i, Methyl 6-(3-(2-(3-(((2R,3S,4R,5R)-5-(6-Amino-9H-purin-9-yl)-3,4-dihydroxytetrahydrofuran-2-yl)methyl)guanidino)ethyl)ureido)-4-hydroxy-2-naphthoate], on human recombinant PRMT9 (AlphaLISA IC50 values), the “reduction in potency against PRMT9 compared to 1a” value was determined as 3 fold. Also, the pIC50 is 5.61 on human recombinant PRMT9; less than 4.00 on PRMT1; less than 4.00 on PRMT3; 4.64 on PRMT4; 5.03 against PRMT5/MEP50 complex; 4.15 against PRMT6. Further, the values for the pIC50 at PRMT7 and against PRMT8 were 6.27 and 4.38, respectively.
